Laboratory results: patent US5872138A, “Thrombin inhibitors” (Merck & Co., Inc., priority 1997, dated 1999)
Where a name gives a salt, the structure may show the parent alone. Read-outs that look alike come from different tables or passages of the source. Values belong to the compound of their own block, whether it stands above or below them.

Target: T1, human a-thrombin (Homo sapiens, UniProt P00734)
T1 construct: human a-thrombin
Assay: In vitro assay for determining proteinase inhibition (thrombin Ki)
Format: biochemical
Settings: 25° C., pH 7.4
Experimental: In vitro assay for determining proteinase inhibition Assays of human a-thrombin and human trypsin were performed at 25° C. in 0.05M TRIS buffer pH 7.4, 0.15M NaCl, 0.1% PEG. Trypsin assays also contained 1 mM CaCl2. In assays wherein rates of hydrolysis of a p-nitroanilide (pna) substrate were determined, a Thermomax 96-well plate reader was used to measure (at 405 nm) the time dependent appearance of p-nitroaniline. […] Activity assays were performed by diluting a stock solution of substrate at least tenfold to a final concentration 0.5 Km into a solution containing enzyme or enzyme equilibrated with inhibitor. Times required to achieve equilibration between enzyme and inhibitor were determined in control experiments. Initial velocities of product formation in the absence (Vo) or presence of inhibitor (Vi) were measured. Assuming competitive inhibition, and that unity is negligible compared Km /[S], […] (where [S], [I], and e respectively represent the total concentrations, of substrate, inhibitor and enzyme), the equilibrium constant (Ki) for dissociation of the inhibitor from the enzyme can be obtained from the dependence of Vo /Vi on [I] shown in equation 1.

Ki (Table I, read-out: Ki (thr)): > 1000 nM
Compound: Nc1cc[n+](Cc2ccc(OCc3ccccc3)nc2)cc1

Ki (Table 2, read-out: Ki (thr)): 100 to 1000 nM
Compound: c1cc(NCc2ccc(OC(C3CCCCC3)C3CC3)cc2)ccn1 (stereo not shown)

Ki (Table 2, read-out: Ki (thr)): > 1000 nM
Compound: c1ccc(CSc2ccc(CNc3ccncc3)cc2)cc1

Ki (Table 2, read-out: Ki (thr)): > 1000 nM
Compound: c1cc(NCc2ccc(NCC3CCCCC3)cc2)ccn1

Ki (Table 2, read-out: Ki (thr)): > 1000 nM
Compound: c1cc(NCc2ccc(OCCCCC3CCCCC3)cc2)ccn1

Ki (Table 3, read-out: Ki(th)): 3200 nM
Compound: c1cc(NCc2ccc(OCC3CCCCC3)c(C3CC3)c2)ccn1

Ki (Table 3, read-out: Ki(th)): 1500 nM
Compound: CC(C)Cc1cc(CNc2ccncc2)ccc1OCC1CCCCC1

Ki (Table 3, read-out: Ki(th)): 220 nM
Compound: CCCc1cc(CNc2ccncc2)ccc1OCC12CC3CC(CC(C3)C1)C2

Ki (Table 3, read-out: Ki(th)): 740 nM
Compound: CCCc1cc(CNc2ccncc2)ccc1OCC1CCCCCC1

Ki (Table 3, read-out: Ki(th)): 3200 nM
Compound: COc1cc(OCC2CCCCC2)ccc1CNc1ccncc1

Ki (Table 3, read-out: Ki(th)): 500 nM
Compound: CCCc1cc(CNc2ccncc2)ccc1OC(Cc1ccccc1)C(C)C (stereo not shown)

Ki (Table 3, read-out: Ki(th)): > 900 nM
Compound: CCCc1cc(CNc2ccncc2)c(Cc2ccccc2)cc1OCC1CCCCC1

Ki (Table 3, read-out: Ki(th)): 1800 nM
Compound: CCCc1cc(CNc2ccncc2)ccc1OCc1ccc(OC)cc1

Ki (Table 4, read-out: Ki (thr)): 1000 to 10000 nM
Compound: CNCc1cc(CNc2ccncc2)ccc1OCC1CCCCC1

Ki (Table 4, read-out: Ki (thr)): > 10000 nM
Compound: CC(C)(C)OCCc1cc(CNc2ccncc2)ccc1OCC1CCCCC1

Ki (Table 6, read-out: Ki(thr)): 280 nM
Compound: CCCc1cc(Cc2ccc(C(=N)N)cc2)ccc1OC(C(C)C)C1CCCCC1 (stereo not shown)

Ki (Table 6, read-out: Ki(thr)): 77 nM
Compound: CCc1cc(Cc2ccc(C(=N)N)cc2)ccc1OCC1CCCCC1

Ki (Table 6, read-out: Ki(thr)): 20 nM
Compound: CCc1cc(Cc2ccc(C(=N)N)cc2)ccc1OC(C(C)C)C1CCCCC1 (stereo not shown)

Ki (Table 7, read-out: Ki(thr)): 1000 to 10000 nM
Compound: c1ccc(OCc2ccc(CNc3ccncc3)cc2)cc1

Ki (Table 2, read-out: Ki (thr)): > 1000 nM
Compound: c1ccc(CC(Cc2ccccc2)Oc2ccc(CNc3ccncc3)cc2)cc1 [4-[4-(1,3-diphenyl-2-propoxy)benzylamino]pyridine]

Ki (Table 2, read-out: Ki (thr)): > 1000 nM
Compound: c1cc(NCc2ccc(OCc3ccc4c(c3)OCO4)cc2)ccn1 [4-[4-(3,4-methylenedioxybenzyloxy)benzylamino]pyridine]

Ki (Table 3, read-out: Ki(th)): 500 nM
Compound: CCCc1cc(CNc2ccncc2)ccc1OCC1CCCCC1 [4-{[3-propyl-4-(cyclohexylmethyloxy)phenyl]methylamino}pyridine]

Ki (Table 6, read-out: Ki(thr)): 390 nM
Compound: N=C(N)c1ccc(Cc2ccc(OCc3ccccc3)cc2)cc1 [4-{[4-(Phenylmethyloxy)phenyl]methyl}benzamidine hydrochloride]

Ki (Table 2, read-out: Ki (thr)): > 1000 nM
Compound: c1ccc(COc2ccc(CNc3ccncc3)cc2)cc1 [N-4-(4-benzyloxybenzyl)aminopyridine]

Ki (Table 2, read-out: Ki (thr)): > 1000 nM
Compound: c1cc(NCc2ccc(OCC3CCCCC3)cc2)ccn1 [N-4-(cyclohexylmethoxy)benzylaminopyridine]

The next lines start with the compound.

Compound: Nc1cc[n+](Cc2ccc(OCc3ccccc3)cc2)cc1
Ki (Table I, read-out: Ki (thr)): 100 to 1000 nM

Compound: Nc1cc[n+](Cc2ccc(-c3ccccc3)cc2)cc1
Ki (Table I, read-out: Ki (thr)): > 1000 nM

Compound: Nc1cc[n+](Cc2ccc(OCc3ccccc3)cn2)cc1
Ki (Table I, read-out: Ki (thr)): > 1000 nM

Compound: COc1cc(C[n+]2ccc(N)cc2)ccc1OCc1ccccc1
Ki (Table I, read-out: Ki (thr)): > 1000 nM

Compound: Nc1cc[n+](Cc2ccc(OCc3ccccc3)c(OCc3ccccc3)c2)cc1
Ki (Table I, read-out: Ki (thr)): > 1000 nM

Compound: c1cc(NCc2ccc(OCC(C3CCCCC3)C3CCCCC3)cc2)ccn1
Ki (Table 2, read-out: Ki (thr)): > 1000 nM

Compound: c1ccc(CNc2ccc(CNc3ccncc3)cc2)cc1
Ki (Table 2, read-out: Ki (thr)): > 1000 nM

Compound: COC(=O)C(Oc1ccc(CNc2ccncc2)cc1)c1ccccc1 (stereo not shown)
Ki (Table 2, read-out: Ki (thr)): > 1000 nM

Compound: NC(=O)C(Oc1ccc(CNc2ccncc2)cc1)c1ccccc1 (stereo not shown)
Ki (Table 2, read-out: Ki (thr)): > 1000 nM

Compound: c1ccc(C(Oc2ccc(CNc3ccncc3)cc2)C2CCCCC2)cc1 (stereo not shown)
Ki (Table 2, read-out: Ki (thr)): > 1000 nM

Compound: CC(C)C(Oc1ccc(CNc2ccncc2)cc1)c1ccc2c(c1)OCO2 (stereo not shown)
Ki (Table 2, read-out: Ki (thr)): > 1000 nM

Compound: CCC(Oc1ccc(CNc2ccncc2)cc1)c1ccccc1 (stereo not shown)
Ki (Table 2, read-out: Ki (thr)): > 1000 nM

Compound: CC(Oc1ccc(CNc2ccncc2)cc1)c1ccccc1 (stereo not shown)
Ki (Table 2, read-out: Ki (thr)): > 1000 nM

Compound: OCCc1cc(CNc2ccncc2)ccc1OCC1CCCCC1
Ki (Table 3, read-out: Ki(th)): 4400 nM

Compound: CCCc1cc(CNc2ccncc2)ccc1OC(c1ccccc1)C1CC1 (stereo not shown)
Ki (Table 3, read-out: Ki(th)): 800 nM

Compound: CCCc1cc(CNc2ccncc2)ccc1OC(Cc1ccccc1)C1CC1 (stereo not shown)
Ki (Table 3, read-out: Ki(th)): 1300 nM

Compound: C=Cc1cc(CNc2ccncc2)ccc1OCC1CCCCC1
Ki (Table 3, read-out: Ki(th)): 260 nM

Compound: c1ccc(-c2cc(OCC3CCCCC3)ccc2CNc2ccncc2)cc1
Ki (Table 3, read-out: Ki(th)): 6400 nM

Compound: CCCc1cc(CNc2ccncc2)cc(CO)c1OCC1CCCCC1
Ki (Table 3, read-out: Ki(th)): 3800 nM

Compound: Oc1cc(OCC2CCCCC2)ccc1CNc1ccncc1
Ki (Table 3, read-out: Ki(th)): 1600 nM

Compound: CCCc1cc(CNc2ccncc2)ccc1OC(c1ccccc1)c1ccccc1
Ki (Table 3, read-out: Ki(th)): 320 nM

Compound: CCCc1cc(CNc2ccncc2)ccc1OCc1ccccc1
Ki (Table 3, read-out: Ki(th)): 1800 nM

Compound: c1ccc(-c2cc(CNc3ccncc3)ccc2OCC2CCCCC2)cc1
Ki (Table 4, read-out: Ki (thr)): > 10000 nM

Compound: OCc1cc(CNc2ccncc2)ccc1OCC1CCCCC1
Ki (Table 4, read-out: Ki (thr)): > 10000 nM

Compound: NCc1cc(CNc2ccncc2)ccc1OCC1CCCCC1
Ki (Table 4, read-out: Ki (thr)): > 10000 nM

Compound: CNC(=O)c1cc(CNc2ccncc2)ccc1OCC1CCCCC1
Ki (Table 4, read-out: Ki (thr)): > 10000 nM

Compound: CCCc1cc(CNc2ccncc2)cc(CN2CCCCC2)c1OCC1CCCCC1
Ki (Table 4, read-out: Ki (thr)): 1000 to 10000 nM

Compound: CCCc1cc(CN(CC)c2ccncc2)ccc1OCC1CCCCC1
Ki (Table 4, read-out: Ki (thr)): > 10000 nM

Compound: CCCc1cc(CNc2ccncc2C)ccc1OCC1CCCCC1
Ki (Table 4, read-out: Ki (thr)): 1000 to 10000 nM

Compound: CCCc1cc(CNc2ccncc2)ccc1OCC1CC2C=CC1C2 (stereo not shown)
Ki (Table 4, read-out: Ki (thr)): 100 to 1000 nM

Compound: CCCc1cc(CNc2ccncc2)ccc1OCc1cccc2ccccc12
Ki (Table 4, read-out: Ki (thr)): 1000 to 10000 nM

Compound: CCCc1cc(Cc2ccc(C(=N)N)cc2)ccc1OCC1CCCCC1
Ki (Table 6, read-out: Ki(thr)): 300 nM

Compound: Cc1cc(Cc2ccc(C(=N)N)cc2)ccc1OCC1CCCCC1
Ki (Table 6, read-out: Ki(thr)): 102 nM

Compound: Cc1cc(Cc2ccc(C(=N)N)cc2)ccc1OC(C(C)C)C1CCCCC1 (stereo not shown)
Ki (Table 6, read-out: Ki(thr)): 20 nM

Compound: c1cc(NCc2ccc(CCC3CCCCC3)cc2)ccn1
Ki (Table 7, read-out: Ki(thr)): 1000 to 10000 nM

Compound: 4-amino-1-(4-(1-phenyl-1-carbomethoxy)methoxybenzyl)pyridinium bromide
Ki (Table I, read-out: Ki (thr)): 100 to 1000 nM

Compound: c1ccc(Cc2cc(OCC3CCCCC3)ccc2CNc2ccncc2)cc1 [4'-(4-cyclohexylmethyloxy-2-benzylphenylmethyl)-aminopyridine]
Ki (Table 3, read-out: Ki(th)): 1800 nM

Compound: c1ccc(COc2cc(OCC3CCCCC3)ccc2CNc2ccncc2)cc1 [4-(4-cyclohexylmethyloxy-2-benzyloxybenzyl)aminopyridine]
Ki (Table 3, read-out: Ki(th)): 1800 nM

Compound: c1ccc(C(COc2ccc(CNc3ccncc3)cc2)c2ccccc2)cc1 [4-[4-(2,2-diphenylethoxy)benzylamino]pyridine]
Ki (Table 2, read-out: Ki (thr)): > 1000 nM

Compound: c1cc(NCc2ccc(OCCC3CCCCC3)cc2)ccn1 [4-[4-(2-cyclohexylethoxy)benzylamino]pyridine]
Ki (Table 2, read-out: Ki (thr)): > 1000 nM

Compound: CC(C)C(Oc1ccc(CNc2ccncc2)cc1)c1ccccc1 (stereo not shown) [4-[4-(2-methyl-1-phenylpropoxy)benzylamino]pyridine]
Ki (Table 2, read-out: Ki (thr)): > 1000 nM

Compound: c1cc(NCc2ccc(OC(C3CCCCC3)C3CCCCC3)cc2)ccn1 [4-[4-(dicyclohexylmethoxy)-benzylamino]pyridine]
Ki (Table 2, read-out: Ki (thr)): > 1000 nM

Compound: Nc1cc[n+](Cc2ccc(OC(c3ccccc3)c3ccccc3)cc2)cc1 [4-amino-1-(4-(1,1-diphenylmethoxy)benzylpyridinium bromide]
Ki (Table I, read-out: Ki (thr)): < 100 nM

Compound: Nc1cc[n+](Cc2ccc(OCC(C3CCCCC3)C3CCCCC3)cc2)cc1 [4-amino-1-(4-(2,2-dicyclohexyl-1-ethoxy)benzyl)pyridinium bromide]
Ki (Table I, read-out: Ki (thr)): 100 to 1000 nM

Compound: Nc1cc[n+](Cc2ccc(OC(CCc3ccccc3)c3ccccc3)cc2)cc1 (stereo not shown) [4-amino-1-[4-(1,3-diphenyl-1-propoxy)benzyl]pyridinium bromide]
Ki (Table I, read-out: Ki (thr)): 100 to 1000 nM

Compound: Nc1cc[n+](Cc2ccc(OCC(c3ccccc3)c3ccccc3)cc2)cc1 [4-amino-1-[4-(2,2-diphenylethoxy)benzyl]pyridinium bromide]
Ki (Table I, read-out: Ki (thr)): 100 to 1000 nM

Compound: Nc1cc[n+](Cc2ccc(OC(C3CCCCC3)C3CCCCC3)cc2)cc1 [4-amino-1-[4-(dicyclohexylmethoxy)benzyl]pyridinium bromide]
Ki (Table I, read-out: Ki (thr)): 100 to 1000 nM

Compound: Nc1cc(CNc2ccncc2)ccc1OCC1CCCCC1 [4-{[3-amino-4-(cyclohexylmethyloxy)phenyl]methylamino}pyridine dihydrochloride]
Ki (Table 3, read-out: Ki(th)): 2900 nM

Compound: CCc1cc(CNc2ccncc2)ccc1OCC1CCCCC1 [4-{[3-ethyl-4-(cyclohexylmethyloxy)phenyl]methylamino}pyridine]
Ki (Table 3, read-out: Ki(th)): 640 nM

Compound: N=C(N)c1ccc(Cc2ccc(OCC3CCCCC3)cc2)cc1 [4-{[4-(Cyclohexylmethyloxy)phenyl]methyl}-benzamidine hydrochloride]
Ki (Table 6, read-out: Ki(thr)): 170 nM

Compound: c1ccc(C(Oc2ccc(CNc3ccncc3)cc2)c2ccccc2)cc1 [N-4-(1,1-diphenylmethoxy)benzylaminopyridine]
Ki (Table 2, read-out: Ki (thr)): > 1000 nM
